pEC50: −log10 of the molar value.
How the values were obtained:
Type in all cases: biochemical
JAK2 = target: T1, JAK2 (Homo sapiens, UniProt O60674); test: JAK2 kinase assay (HTRF, inhibition of phosphorylation of a synthetic peptide); conditions: catalytic domain, His-tag; 4 μM ATP (Km); read-out: JAK2 kinase inhibitory activity (EC50)
T1 construct: All four purified enzymes contain only the catalytic domain; His (N); purchased Carna Biosciences, Inc; host or cells: baculovirus expression system
How it was run: (§1)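 Baculovirus-expressed catalytic domains (GST-JAK1 aa 850-1154, GST-TYK2 aa 871-1187, His-JAK2, His-JAK3) phosphorylate 1 μM biotin-TK peptide 20-30 min at RT in 50 mM Hepes pH 7.0 with ATP at Km: JAK1 7 μM, JAK2 4 μM, JAK3 2 μM, TYK2 13 μM; 0.75% DMSO. Stopped with EDTA, HTRF read overnight.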

JAK3 = target: T2, JAK3 (Homo sapiens, UniProt P52333); test: JAK3 kinase assay (HTRF, inhibition of phosphorylation of a synthetic peptide); conditions: catalytic domain, His-tag; 2 μM ATP (Km); read-out: JAK3 kinase inhibitory activity (EC50)
T2 construct: All four purified enzymes contain only the catalytic domain; His (N); purchased Carna Biosciences, Inc; host or cells: baculovirus expression system
How it was run: as §1

JAK1 = target: T3, JAK1 (Homo sapiens, UniProt P23458); test: JAK1 kinase assay (HTRF, inhibition of phosphorylation of a synthetic peptide); conditions: catalytic domain aa 850-1154, GST-tag; 7 μM ATP (Km); read-out: JAK1 kinase inhibitory activity (EC50)
T3 construct: JAK1 (aa 850-1154) and TYK2 (aa 871-1187) are expressed with an N-terminally fused GST-tag; GST (N); purchased Carna Biosciences, Inc; host or cells: baculovirus expression system
How it was run: as §1

T3 sequence (P23458 850-1154): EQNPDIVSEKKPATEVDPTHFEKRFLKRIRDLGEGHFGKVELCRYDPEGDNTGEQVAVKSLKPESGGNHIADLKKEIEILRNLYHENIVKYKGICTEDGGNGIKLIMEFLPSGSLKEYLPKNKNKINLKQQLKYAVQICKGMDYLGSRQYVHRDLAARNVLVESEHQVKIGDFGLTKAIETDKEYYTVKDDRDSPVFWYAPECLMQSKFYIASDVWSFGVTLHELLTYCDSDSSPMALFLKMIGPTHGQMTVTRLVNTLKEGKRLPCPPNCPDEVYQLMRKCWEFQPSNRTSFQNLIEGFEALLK
T1 sequence (O60674 849-1124 limits assumed): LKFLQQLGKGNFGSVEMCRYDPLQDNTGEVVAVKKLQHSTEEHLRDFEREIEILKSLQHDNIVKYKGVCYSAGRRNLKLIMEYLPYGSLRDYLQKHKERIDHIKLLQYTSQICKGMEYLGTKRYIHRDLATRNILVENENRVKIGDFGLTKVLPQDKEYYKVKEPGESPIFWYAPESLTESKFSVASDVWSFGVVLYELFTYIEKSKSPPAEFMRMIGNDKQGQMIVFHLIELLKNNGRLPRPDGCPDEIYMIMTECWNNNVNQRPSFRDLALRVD
T2 sequence (P52333 822-1111 limits assumed): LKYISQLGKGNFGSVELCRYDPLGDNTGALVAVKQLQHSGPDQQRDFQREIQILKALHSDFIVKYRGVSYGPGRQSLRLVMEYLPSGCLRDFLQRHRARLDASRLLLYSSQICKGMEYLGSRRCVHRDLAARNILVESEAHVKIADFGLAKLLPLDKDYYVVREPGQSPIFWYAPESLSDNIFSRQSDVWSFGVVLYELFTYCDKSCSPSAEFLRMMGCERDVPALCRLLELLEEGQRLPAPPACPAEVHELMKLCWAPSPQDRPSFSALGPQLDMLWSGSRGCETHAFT

Compound	pEC50 (JAK2)	pEC50 (JAK3)	pEC50 (JAK1)
CN(CCC#N)C(=O)N1CCN(c2ncnc3[nH]ccc23)CC2(CC2)C1 [Example 220, N-(2-cyanoethyl)-N-methyl-5-(7H-pyrrolo[2,3-d]pyrimidin-4-yl)-5,8-diazaspiro[2.6]nonane-8-carboxamide]	6.00 to 7.00	6.00 to 7.00	6.00 to 7.00
O=C(c1cc(O)[nH]n1)N1CCCN(c2ncnc3[nH]ccc23)CC12CC2 [Example 212, (5-hydroxy-1H-pyrazol-3-yl)-[5-(7H-pyrrolo[2,3-d]pyrimidin-4-yl)-5,9-diazaspiro[2.6]nonan-9-yl]methanone]	6.00 to 7.00	6.00 to 7.00	6.00 to 7.00
O=C(c1ccc(O)nc1)N1CCN(c2ncnc3[nH]ccc23)CC2(CC2)C1 [Example 131, (6-hydroxy-3-pyridyl)-[5-(7H-pyrrolo[2,3-d]pyrimidin-4-yl)-5,8-diazaspiro[2.6]nonan-8-yl]methanone]	6.00 to 7.00	6.00 to 7.00	6.00 to 7.00
Cc1cnc(C(=O)N2CCN(c3ncnc4[nH]ccc34)CC3(CC3)C2)cn1 [Example 196, (5-methylpyrazin-2-yl)-[5-(7H-pyrrolo[2,3-d]pyrimidin-4-yl)-5,8-diazaspiro[2.6]nonan-8-yl]methanone]	< 6.00	< 6.00	< 6.00
Cc1ncc(CC(=O)N2CCN(c3ncnc4[nH]ccc34)CC3(CC3)C2)s1 [Example 247, 2-(2-methylthiazol-5-yl)-1-[5-(7H-pyrrolo[2,3-d]pyrimidin-4-yl)-5,8-diazaspiro[2.6]nonan-8-yl]ethanone]	> 7.00	< 6.00	6.00 to 7.00
Cc1nnsc1C(=O)N1CCCN(c2ncnc3[nH]ccc23)CC12CC2 [Example 147, (4-methylthiadiazol-5-yl)-[5-(7H-pyrrolo[2,3-d]pyrimidin-4-yl)-5,9-diazaspiro[2.6]nonan-9-yl]methanone]	6.00 to 7.00	< 6.00	6.00 to 7.00
O=C(c1cnsc1)N1CCN(c2ncnc3[nH]ccc23)CC2(CC2)C1 [Example 210, isothiazol-4-yl-[5-(7H-pyrrolo[2,3-d]pyrimidin-4-yl)-5,8-diazaspiro[2.6]nonan-8-yl]methanone]	6.00 to 7.00	6.00 to 7.00	6.00 to 7.00
Cc1[nH]ncc1C(=O)N1CCN(c2ncnc3[nH]ccc23)CC2(CC2)C1 [Example 206, (5-methyl-1H-pyrazol-4-yl)-[5-(7H-pyrrolo[2,3-d]pyrimidin-4-yl)-5,8-diazaspiro[2.6]nonan-8-yl]methanone]	6.00 to 7.00	6.00 to 7.00	6.00 to 7.00
N#Cc1ccccc1C(=O)N1CCCN(c2ncnc3[nH]ccc23)CC12CC2 [Example 162, 2-[5-(7H-pyrrolo[2,3-d]pyrimidin-4-yl)-5,9-diazaspiro[2.6]nonane-9-carbonyl]benzonitrile]	6.00 to 7.00	< 6.00	< 6.00
CCN(CCC#N)C(=O)N1CCN(c2ncnc3[nH]ccc23)CC2(CC2)C1 [Example 224, N-(2-cyanoethyl)-N-ethyl-5-(7H-pyrrolo[2,3-d]pyrimidin-4-yl)-5,8-diazaspiro[2.6]nonane-8-carboxamide]	6.00 to 7.00	6.00 to 7.00	< 6.00
O=C(Cc1ccccc1)N1CCN(c2ncnc3[nH]ccc23)CC2(CC2)C1 [Example 259, 2-phenyl-1-[5-(7H-pyrrolo[2,3-d]pyrimidin-4-yl)-5,8-diazaspiro[2.6]nonan-8-yl]ethanone]	> 7.00	6.00 to 7.00	6.00 to 7.00
O=C(c1cccc(Cl)c1)N1CCN(c2ncnc3[nH]ccc23)CC2(CC2)C1 [Example 186, (3-chlorophenyl)-[5-(7H-pyrrolo[2,3-d]pyrimidin-4-yl)-5,8-diazaspiro[2.6]nonan-8-yl]methanone]	6.00 to 7.00	< 6.00	6.00 to 7.00
Cc1cc(C(=O)N2CCCN(c3ncnc4[nH]ccc34)CC23CC3)n(C)n1 [Example 193, (2,5-dimethylpyrazol-3-yl)-[5-(7H-pyrrolo[2,3-d]pyrimidin-4-yl)-5,9-diazaspiro[2.6]nonan-9-yl]methanone]	> 7.00	< 6.00	6.00 to 7.00
Cc1nocc1C(=O)N1CCN(c2ncnc3[nH]ccc23)CC2(CC2)C1 [Example 244, (3-methylisoxazol-4-yl)-[5-(7H-pyrrolo[2,3-d]pyrimidin-4-yl)-5,8-diazaspiro[2.6]nonan-8-yl]methanone]	6.00 to 7.00	6.00 to 7.00	6.00 to 7.00
O=C1OCCN1CC(=O)N1CCCN(c2ncnc3[nH]ccc23)CC12CC2 [Example 86, 3-[2-oxo-2-[5-(7H-pyrrolo[2,3-d]pyrimidin-4-yl)-5,9-diazaspiro[2.6]nonan-9-yl]ethyl]oxazolidin-2-one]	6.00 to 7.00	< 6.00	< 6.00
Cc1nonc1CC(=O)N1CCN(c2ncnc3[nH]ccc23)CC2(CC2)C1 [Example 251, 2-(4-methyl-1,2,5-oxadiazol-3-yl)-1-[5-(7H-pyrrolo[2,3-d]pyrimidin-4-yl)-5,8-diazaspiro[2.6]nonan-8-yl]ethanone]	> 7.00	6.00 to 7.00	> 7.00
O=C(c1n[nH]c(Cl)n1)N1CCCN(c2ncnc3[nH]ccc23)CC12CC2 [Example 232, (5-chloro-1H-1,2,4-triazol-3-yl)-[5-(7H-pyrrolo[2,3-d]pyrimidin-4-yl)-5,9-diazaspiro[2.6]nonan-9-yl]methanone]	> 7.00	6.00 to 7.00	6.00 to 7.00
O=C(CN1CCOC1=O)N1CCN(c2ncnc3[nH]ccc23)CC2(CC2)C1 [Example 81, 3-[2-oxo-2-[5-(7H-pyrrolo[2,3-d]pyrimidin-4-yl)-5,8-diazaspiro[2.6]nonan-8-yl]ethyl]oxazolidin-2-one]	6.00 to 7.00	6.00 to 7.00	6.00 to 7.00
Cc1nnc(C(=O)N2CCCN(c3ncnc4[nH]ccc34)CC23CC3)[nH]1 [Example 257, (5-methyl-4H-1,2,4-triazol-3-yl)-[5-(7H-pyrrolo[2,3-d]pyrimidin-4-yl)-5,9-diazaspiro[2.6]nonan-9-yl]methanone]	6.00 to 7.00	< 6.00	6.00 to 7.00
N#Cc1cc(CC(=O)N2CCN(c3ncnc4[nH]ccc34)CC3(CC3)C2)ccc1F [Example 273, 2-fluoro-5-[2-oxo-2-[5-(7H-pyrrolo[2,3-d]pyrimidin-4-yl)-5,8-diazaspiro[2.6]nonan-8-yl]ethyl]benzonitrile]	> 7.00	6.00 to 7.00	6.00 to 7.00
O=C(Cc1ccc2ccccc2c1)N1CCN(c2ncnc3[nH]ccc23)CC2(CC2)C1 [Example 265, 2-(2-naphthyl)-1-[5-(7H-pyrrolo[2,3-d]pyrimidin-4-yl)-5,8-diazaspiro[2.6]nonan-8-yl]ethanone]	> 7.00	6.00 to 7.00	6.00 to 7.00
O=C(c1ccccc1Cl)N1CCCN(c2ncnc3[nH]ccc23)CC12CC2 [Example 178, (2-chlorophenyl)-[5-(7H-pyrrolo[2,3-d]pyrimidin-4-yl)-5,9-diazaspiro[2.6]nonan-9-yl]methanone]	6.00 to 7.00	< 6.00	6.00 to 7.00
O=C(c1ccccn1)N1CCN(c2ncnc3[nH]ccc23)CC2(CC2)C1 [Example 188, 2-pyridyl-[5-(7H-pyrrolo[2,3-d]pyrimidin-4-yl)-5,8-diazaspiro[2.6]nonan-8-yl]methanone]	6.00 to 7.00	< 6.00	< 6.00
CN1CC(=O)N(CC(=O)N2CCN(c3ncnc4[nH]ccc34)CC3(CC3)C2)C1=O [Example 80, 1-methyl-3-[2-oxo-2-[5-(7H-pyrrolo[2,3-d]pyrimidin-4-yl)-5,8-diazaspiro[2.6]nonan-8-yl]ethyl]imidazolidine-2,4-dione]	> 7.00	6.00 to 7.00	6.00 to 7.00
CC(C(=O)N1CCN(c2ncnc3[nH]ccc23)CC2(CC2)C1)c1ccccc1 (stereo not drawn) [Example 275, 2-phenyl-1-[5-(7H-pyrrolo[2,3-d]pyrimidin-4-yl)-5,8-diazaspiro[2.6]nonan-8-yl]propan-1-one]	> 7.00	6.00 to 7.00	6.00 to 7.00
Cc1ccccc1C(=O)N1CCN(c2ncnc3[nH]ccc23)CC2(CC2)C1 [Example 109, o-tolyl-[5-(7H-pyrrolo[2,3-d]pyrimidin-4-yl)-5,8-diazaspiro[2.6]nonan-8-yl]methanone]	6.00 to 7.00	< 6.00	< 6.00
N#C[C@@H]1CCCN1C(=O)N1CCN(c2ncnc3[nH]ccc23)CC2(CC2)C1 [Example 222, (2S)-1-[5-(7H-pyrrolo[2,3-d]pyrimidin-4-yl)-5,8-diazaspiro[2.6]nonane-8-carbonyl]pyrrolidine-2-carbonitrile]	> 7.00	6.00 to 7.00	6.00 to 7.00
O=C(c1ccncn1)N1CCN(c2ncnc3[nH]ccc23)CC2(CC2)C1 [Example 165, pyrimidin-4-yl-[5-(7H-pyrrolo[2,3-d]pyrimidin-4-yl)-5,8-diazaspiro[2.6]nonan-8-yl]methanone]	6.00 to 7.00	< 6.00	< 6.00
O=C(c1cnon1)N1CCCN(c2ncnc3[nH]ccc23)CC12CC2 [Example 121, 1,2,5-oxadiazol-3-yl-[5-(7H-pyrrolo[2,3-d]pyrimidin-4-yl)-5,9-diazaspiro[2.6]nonan-9-yl]methanone]	6.00 to 7.00	> 7.00	6.00 to 7.00
